Source: ChEMBL document CHEMBL1201862, “PubChem BioAssay data set” (2004)
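How tested: cells in 96-well plates exposed to compound for 48 hours at five concentrations. GI50 is the concentration that inhibits growth by half.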 Activity calls are given as the source filed them. Cut-off read from the data, not from the text of the source: active = GI50 up to about 1.1 µM and inactive = higher.

What was measured:
Experiment in all cases: NCI tumour cell line growth inhibition, 48 h
[1] = system: 786-0
[2] = system: A498
[3] = system: BT-549
[4] = system: DU-145
[5] = system: HOP-62
[6] = system: HT-29
[7] = system: MDA-MB-435
[8] = system: NCI-H460
[9] = system: NCI-H522
[10] = system: PC-3
[11] = system: SF-268
[12] = system: SR
[13] = system: T47D
[14] = system: U-251
[15] = system: NCI/ADR-RES

Measured: GI50

Cc1ncc2c(n1)CCC1=C2OS(=O)(=O)CC1N(C)C (stereo not drawn)
inactive: [1] > 100 µM | [2] 58.2 µM | [3] > 100 µM | [4] > 100 µM | [5] 76.6 µM | [6] > 100 µM | [7] > 100 µM | [8] > 100 µM | [9] 31.8 µM | [10] > 100 µM | [11] > 100 µM | [12] > 100 µM | [13] 63.1 µM | [14] > 100 µM

CC(=O)c1cc2sc3ccccc3c2[nH]1
inactive: [1] > 100 µM | [2] > 100 µM | [4] > 100 µM | [5] > 100 µM | [6] > 100 µM | [7] > 100 µM | [8] > 100 µM | [9] > 100 µM | [15] > 100 µM | [10] > 100 µM | [11] > 100 µM | [13] > 100 µM | [14] > 100 µM

COc1ccc(C(=O)/C=C/S/C(=N/C#N)SC)cc1
inactive: [1] 19 µM | [2] 24.5 µM | [4] 21.7 µM | [5] 24.3 µM | [6] 19.8 µM | [7] 21.5 µM | [8] > 100 µM | [9] 18.2 µM | [15] 21.3 µM | [10] 33.8 µM | [11] 25.8 µM | [12] 3.95 µM | [13] 20.7 µM | [14] 16.9 µM

O=c1ccn(C2OC(COC3CCCCO3)C(OC3CCCCO3)C2OC2CCCCO2)c(=O)n1-c1ccccc1 (stereo not drawn)
inactive: [1] > 100 µM | [2] > 100 µM | [4] > 100 µM | [5] > 100 µM | [6] > 100 µM | [7] > 100 µM | [8] > 100 µM | [9] > 100 µM | [15] > 100 µM | [10] > 100 µM | [11] > 100 µM | [12] 51.5 µM | [13] > 100 µM | [14] > 100 µM

CCCCNC(=O)OCCN=C1c2ccccc2C(Br)C(Br)c2ccccc21 (stereo not drawn)
inactive: [1] 14.6 µM | [2] 41.5 µM | [4] 41.3 µM | [5] 25.9 µM | [6] 12.5 µM | [7] 21 µM | [8] 54.6 µM | [9] 22.2 µM | [15] 19.9 µM | [10] 36.9 µM | [11] 32.3 µM | [12] 21.3 µM | [13] 33.8 µM | [14] 23.2 µM

O=C(Nc1ccn(C2CC(O)C(COC(c3ccccc3)(c3ccccc3)c3ccccc3)O2)c(=O)n1)c1ccccc1 (stereo not drawn)
inactive: [1] 1.98 µM | [4] 5.61 µM | [5] 5.62 µM | [6] 1.71 µM | [7] 2.56 µM | [8] 2.03 µM | [9] 3.6 µM | [15] 2.46 µM | [10] 2.43 µM | [11] 5.06 µM | [12] 2.44 µM | [13] 4.46 µM | [14] 3.5 µM

O=c1cnnc2sc(=S)[nH]n12
inactive: [1] 22.5 µM | [2] > 100 µM | [3] 14.1 µM | [4] > 100 µM | [5] 2.61 µM | [6] 39.8 µM | [7] 24.7 µM | [8] 26.7 µM | [9] 8.45 µM | [15] 30.1 µM | [10] 26.7 µM | [11] 5.04 µM | [12] 22.4 µM | [14] 22.1 µM

Cc1cc(C)c(S(=O)(=O)N(CCCCCCN)OCCCN)c(C)c1
inactive: [1] 16 µM | [3] 17.8 µM | [4] 16.1 µM | [5] 20.9 µM | [6] 15.1 µM | [7] 62.1 µM | [8] 15.6 µM | [9] 13 µM | [15] 24.3 µM | [10] 14.6 µM | [11] 16.5 µM | [13] 17.7 µM | [14] 16.2 µM

CCOC(=O)C(NC(=O)c1cccc(Cl)c1)(Nc1ccc(S(=O)(=O)Nc2cc(C)on2)cc1)C(F)(F)F (stereo not drawn)
inactive: [1] > 100 µM | [2] > 100 µM | [4] > 100 µM | [5] > 100 µM | [6] > 100 µM | [7] > 100 µM | [8] > 100 µM | [9] > 100 µM | [15] > 100 µM | [10] > 100 µM | [11] > 100 µM | [13] > 100 µM | [14] > 100 µM

CCCCCCCCCCCCOCCOCCOCCOCCOCCOCC(=O)NC(Cc1ccccc1)C(=O)Oc1ccc([N+](=O)[O-])cc1 (stereo not drawn)
inactive: [1] 34.9 µM | [2] 39.6 µM | [3] 25.5 µM | [5] 40.9 µM | [6] 33.4 µM | [7] 30.6 µM | [8] 30.5 µM | [9] 29.9 µM | [15] 37.5 µM | [10] 31 µM | [11] 50.9 µM | [12] 23.3 µM | [13] 40 µM | [14] 34.2 µM

COC(CC1(/C=C/O[Si](C(C)C)(C(C)C)C(C)C)C(=O)N(COCC[Si](C)(C)C)c2ccccc21)OC (stereo not drawn)
inactive: [1] 31 µM | [2] > 100 µM | [4] > 100 µM | [5] 66.8 µM | [6] 96.4 µM | [7] 23.2 µM | [8] 23.1 µM | [9] 6.75 µM | [15] > 100 µM | [10] 22.1 µM | [11] 17 µM | [12] 21 µM | [13] > 100 µM | [14] 31.8 µM

COc1ccc(CC2(O)C3CC4CCC2C4C3)cc1 (stereo not drawn)
inactive: [1] > 100 µM | [3] 36.6 µM | [5] > 100 µM | [6] 58.1 µM | [7] > 100 µM | [8] 68.5 µM | [9] 88.3 µM | [15] 44.7 µM | [10] 39.2 µM | [11] > 100 µM | [12] 58.7 µM | [14] > 100 µM

CC1CCC2C(C(=O)O[C@H]3C4CCO[C@@H](OC5OC(CO)C(O)C(O)C5O)C4[C@@]4(CO)O[C@@H]34)=CO[C@@H](OC3OC(CO)C(O)C(O)C3O)C12 (stereo partly drawn)
inactive: [1] > 10 µM | [2] > 10 µM | [3] > 10 µM | [4] > 10 µM | [5] > 10 µM | [6] > 10 µM | [7] > 10 µM | [8] > 10 µM | [10] > 10 µM | [11] > 10 µM | [12] > 10 µM | [13] > 10 µM | [14] > 10 µM

CCOc1cc(C=O)ccc1O [ETHYL VANILLIN]
inactive: [1] > 100 µM | [4] > 100 µM | [5] > 100 µM | [6] > 100 µM | [7] > 100 µM | [8] > 100 µM | [9] > 100 µM | [15] > 100 µM | [10] > 100 µM | [11] > 100 µM | [12] 76 µM | [13] > 100 µM | [14] > 100 µM
